Data: patent US7589206B2, “Pyrrolopyridine derivatives” (Glaxo Group Limited, priority 2004, dated 2009)
Entries after “also recorded” stand apart in the source; their conditions may differ. Counter-ions that a name gives are not always drawn. Like-named read-outs stand apart in the source and are kept apart here.

Experiments:
Type in all cases: cell-based
[1] = target: T1, human cannabinoid CB1 receptor (Homo sapiens, UniProt P21554); experiment: Cannabinoid CB1 receptor agonist activity in yeast cells expressing the receptor (FDGlu fluorescence); conditions: yeast assay, individual values of the exceptions; for EC50: read-out: EC50 at the cloned human cannabinoid CB1 receptor; for Emax: relative to HU210, read-out: efficacy (Emax) at the cloned human cannabinoid CB1 receptor
T1 construct: expressed in transfected cells; host or cells: Saccharomyces cerevisiae strain MMY23 (Gpa1/Galphai3 chimeric G-protein alpha subunit)
Description: The cannabinoid CB1 receptor agonist activity of compounds of formula (I) was determined in accordance with the following experimental method.
(§1) Yeast (Saccharomyces cerevisiae) cells expressing the human cannabinoid CB1 receptor were generated by integration of an expression cassette into the ura3 chromosomal locus of yeast strain MMY23. This cassette consisted of DNA sequence encoding the human CB1 receptor flanked by the yeast GPD promoter to the 5′ end of CB1 and a yeast transcriptional terminator sequence to the 3′ end of CB1. MMY23 expresses a yeast/mammalian chimeric G-protein alpha subunit in which the C-terminal 5 amino acids of Gpa1 are replaced with the C-terminal 5 amino acids of human Gαi3 (as described in Brown et al. (2000), Yeast 16:11-22). Cells were grown at 30° C. in liquid Synthetic Complete (SC) yeast media (Guthrie and Fink (1991), Methods in Enzymology, Vol. 194) lacking uracil, tryptophan, adenine and leucine to late logarithmic phase (approximately 6 OD600/ml).
Agonists were prepared as 10 mM stocks in DMSO. EC50 values (the concentration required to produce 50% maximal response) were estimated using dilutions of between 3- and 5-fold (BiomekFX, Beckman) into DMSO. Agonist solutions in DMSO (1% final assay volume) were transferred into black, clear bottom, microtitre plates from NUNC (96- or 384-well). Cells were suspended at a density of 0.2 OD600/ml in SC media lacking histidine, uracil, tryptophan, adenine and leucine and supplemented with 10 mM 3-aminotriazole, 0.1M sodium phosphate pH 7.0, and 20 μM fluorescein di-β-D-glucopyranoside (FDGlu). This mixture (50 ul per well for 384-well plates, 200 ul per well for 96-well plates) was added to agonist in the assay plates (Multidrop 384, Labsystems). After incubation at 30° C. for 24 hours, fluorescence resulting from degradation of FDGlu to fluorescein due to exoglucanase, an endogenous yeast enzyme produced during agonist-stimulated cell growth, was determined using a Spectrofluor microtitre plate reader (Tecan; excitation wavelength: 485 nm; emission wavelength: 535 nm). Fluorescence was plotted against compound concentration and iteratively curve fitted using a four parameter fit to generate a concentration effect value. Efficacy (Emax) was calculated from the equation Emax=Max[compound X]−Min[compound X]/Max[HU210]−Min[HU210]×100%
(§2) where Max[compound X] and Min[compound X] are the fitted maximum and minimum respectively from the concentration effect curve for compound X, and Max[HU210] and Min[HU210] are the fitted maximum and minimum respectively from the concentration effect curve for (6aR,10aR)-3-(1,1′-Dimethylheptyl)-6a,7,10,10a-tetrahydro-1-hydroxy-6,6-dimethyl-6H-dibenzo[b,d]pyran-9-methanol (HU210; available from Tocris). Equieffective molar ratio (EMR) values were calculated from the equation EMR=EC50 [compound X]/EC50 [HU210]
(§3) Where EC50 [compound X] is the EC50 of compound X and EC50 [HU210] is the EC50 of HU210.

[2] = target: T2, human cannabinoid CB2 receptor (Homo sapiens, UniProt P34972); experiment: Cannabinoid CB2 receptor agonist activity in yeast cells expressing the receptor (FDGlu fluorescence); conditions: for CB2 activity at the cloned human cannabinoid CB2 receptor (in words): b47 says only 'the assay used'
T2 construct: expressed in transfected cells; host or cells: Saccharomyces cerevisiae strain MMY23 (Gpa1/Galphai3 chimeric G-protein alpha subunit)
Description: The cannabinoid CB2 receptor agonist activity of compounds of formula (I) was determined in accordance with the following experimental method.
as §1, with “CB2” for “CB1”, “CB2.” for “CB1.”, “OD600/m).” for “OD600/ml).”
Agonists were prepared as 10 mM solutions in DMSO. EC50 values (the concentration required to produce 50% maximal response) were estimated using dilutions of between 3- and 5-fold (BiomekFX, Beckman) into DMSO. Agonist solutions in DMSO (1% final assay volume) were transferred into black microtitre plates from NUNC (96- or 384-well). Cells were suspended at a density of 0.2 OD600/ml in SC media lacking histidine, uracil, tryptophan, adenine and leucine and supplemented with 10 mM 3-aminotriazole, 0.1M sodium phosphate pH 7.0, and 20μM fluorescein di-β-D-glucopyranoside(FDGlu). This mixture (50 ul per well) was added to agonist in the assay plates (Multidrop 384, Labsystems). After incubation at 30° C. for 24 hours, fluorescence resulting from degradation of FDGlu to fluorescein due to exoglucanase, an endogenous yeast enzyme produced during agonist-stimulated cell growth, was determined using a fluorescence microtitre plate reader (Tecan Spectrofluor or LJL Analyst excitation wavelength: 485 nm; emission wavelength: 535 nm). Fluorescence was plotted against compound concentration and iteratively curve fitted using a four parameter fit to generate a concentration effect value. Efficacy (Emax) was calculated from the equation Emax=Max[compound X]−Min[compound X]/Max[HU210]−Min[HU210]×100%
as §2, §3

[3] = target: T3, human recombinant CB2 receptors (Homo sapiens, UniProt P34972); experiment: CB2 agonist effects in a reporter gene assay (CHO-K1 CB2 CRE-LUC cells, inhibition of forskolin response); conditions: 'active except' = excluded from the actives, i.e. not active
T3 construct: expressed in transfected cells; host or cells: CHO-K1 CB2 CRE-LUC cells
Description: CB2 agonist effects were determined using a reporter gene assay. These studies were performed using a CHO-K1 cell line expressing human recombinant CB2 receptors (CHO-K1 CB2 CRE-LUC cells). These cells additionally express a “CRE-LUC” reporter gene construct comprising the gene for luciferase under the control of multiple cAMP response element binding protein promoters. In these cells, increases in intracellular cAMP levels leads to transcription of the luciferase gene and the subsequent production of luciferase. The expression of luciferase is measured by addition to the cells of a proprietary mixture containing luciferin, the substrate for luciferase (Luclite, Perkin Elmer, Cat No 6016919). The resultant reaction leads to the generation of light which is measured in a TopCount scintillation counter. […]
CHO-K1 CB2 CRE-LUC cells were grown in DMEM/F12 plus glutamax I medium (Gibco Cat. No. 31331-028), supplemented with 9% FBS (Gibco, Cat. No. 16000-040) and 0.5 mg·ml^−1 G418 (Gibco, Cat. No. 10131-027) and 0.5 mg·ml^−1 Hygromycin (Invitrogen, Cat. No. 10687-010). […] Finally, luminescence was measured using a Packard TopCount scintillation counter. Data Analysis For each compound maximal inhibition of the forskolin response and the EC50 for this effect was determined. […]

T1 sequence (P21554 whole entry): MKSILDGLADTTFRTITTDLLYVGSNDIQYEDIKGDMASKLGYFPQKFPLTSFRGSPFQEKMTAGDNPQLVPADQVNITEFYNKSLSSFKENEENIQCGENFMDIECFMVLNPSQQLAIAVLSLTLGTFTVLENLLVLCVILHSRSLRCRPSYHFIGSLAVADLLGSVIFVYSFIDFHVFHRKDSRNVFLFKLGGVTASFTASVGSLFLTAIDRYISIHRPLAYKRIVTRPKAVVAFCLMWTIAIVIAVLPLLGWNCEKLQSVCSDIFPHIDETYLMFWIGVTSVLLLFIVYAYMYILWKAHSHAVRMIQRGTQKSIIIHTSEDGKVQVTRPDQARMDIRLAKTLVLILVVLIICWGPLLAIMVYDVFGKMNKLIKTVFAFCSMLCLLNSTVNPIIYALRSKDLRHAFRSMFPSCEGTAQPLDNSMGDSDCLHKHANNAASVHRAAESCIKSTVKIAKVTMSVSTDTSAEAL
T2 sequence (P34972 whole entry): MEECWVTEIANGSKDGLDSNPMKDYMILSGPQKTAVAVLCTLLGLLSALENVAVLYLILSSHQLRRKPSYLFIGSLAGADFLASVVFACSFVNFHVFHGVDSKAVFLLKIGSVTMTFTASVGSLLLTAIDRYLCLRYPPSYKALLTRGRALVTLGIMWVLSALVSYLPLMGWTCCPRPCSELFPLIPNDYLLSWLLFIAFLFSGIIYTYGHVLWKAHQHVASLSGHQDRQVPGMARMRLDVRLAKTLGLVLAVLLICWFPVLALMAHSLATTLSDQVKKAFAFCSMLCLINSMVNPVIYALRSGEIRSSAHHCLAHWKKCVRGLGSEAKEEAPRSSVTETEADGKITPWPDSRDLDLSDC
T3 sequence (P34972 whole entry): as above

Structure (SMILES) | EC50 [1] | Emax [1] | EC50 [2] | also measured
Cn1ccc2c(Nc3cccc(Cl)c3)ncc(C(=O)N3CCSCC3)c21 [Example 237, N-(3-Chlorophenyl)-1-methyl-7-(4-thiomorpholinylcarbonyl)-1H-pyrrolo[3,2-c]pyridin-4-amine] | 738 nM | 92% | – | –
Cn1ccc2c(Nc3cc(Cl)cc(Cl)c3)ncc(C(=O)N3CCOCC3)c21 [Example 124, N-(3,5-Dichlorophenyl)-1-methyl-7-(4-morpholinylcarbonyl)-1H-pyrrolo[3,2-c]pyridin-4-amine hydrochloride] | 508 nM | 75% | – | –
Cn1ccc2c(Nc3ccc(C#N)c(Br)c3)ncc(C(=O)N3CCOCC3)c21 [Example 162, 2-Bromo-4-{[1-methyl-7-(4-morpholinylcarbonyl)-1H-pyrrolo[3,2-c]pyridin-4-yl]amino}benzonitrile hydrochloride] | 801 nM | 33% | – | –
CN(c1cccc(Cl)c1)c1ncc(C(=O)NCC2CCC2)c2c1ccn2C [Example 67, 4-[(3-Chloro-phenyl)-methyl-amino]-1-methyl-1H-pyrrolo[3,2-c]pyridine-7-carboxylic acid cyclobutylmethyl amide hydrochloride] | – | – | 300 to 1000 nM | –
Cc1c[nH]c2c(N3CCOCC3)ncc(C(=O)NC3CCOCC3)c12.Cl [Example 22, 3-methyl-7-morpholin-4-yl-1H-pyrrolo[2,3-c]pyridine-4-carboxylic acid (tetrahydro-pyran-4-yl)-amide] | – | – | – | CB2 activity at the cloned human cannabinoid CB2 receptor (in words) ([2]; yeast assay): inactive; also recorded: did not appear to have CB2 activity; CB2 agonist activity in reporter gene assay (in words) [3]: active except
Cc1ccc(Nc2ncc(C(=O)N3CCOCC3)c3c2ccn3C)c(C)c1 [Example 184, N-(2,4-Dimethylphenyl)-1-methyl-7-(4-morpholinylcarbonyl)-1H-pyrrolo[3,2-c]pyridin-4-amine hydrochloride] | – | – | 300 to 1000 nM | –
Cn1ccc2c(Nc3ccc(C#N)c(Cl)c3)ncc(C(=O)N3CCOCC3)c21 [Example 130, 2-Chloro-4-{[1-methyl-7-(4-morpholinylcarbonyl)-1H-pyrrolo[3,2-c]pyridin-4-yl]amino}benzonitrile hydrochloride] | 897 nM | 30% | – | –
COc1ccccc1Nc1ncc(C(=O)N2CCOCC2)c2c(C)c[nH]c12 [Example 72, 1-[7-(2-Methoxy-phenylamino)-3-methyl-1H-pyrrolo[2,3-c]pyridin-4-yl]-1-morpholin-4-yl-methanone hydrochloride salt] | – | – | 300 to 1000 nM | –
Cc1cc(F)ccc1Nc1ncc(C(=O)N2CCOCC2)c2c1ccn2C [Example 183, N-(4-Fluoro-2-methylphenyl)-1-methyl-7-(4-morpholinylcarbonyl)-1H-pyrrolo[3,2-c]pyridin-4-amine hydrochloride] | – | – | – | EC50 ([2]; yeast assay, read-out: EC50 at the cloned human cannabinoid CB2 receptor): 300 to 1000 nM
Cc1c[nH]c2c(N3CCOCC3)ncc(C(=O)NCC3CCOCC3)c12.Cl [Example 23, 3-methyl-7-morpholin-4-yl-1H-pyrrolo[2,3-c]pyridine-4-carboxylic acid (tetrahydro-pyran-4-ylmethyl)-amide] | – | – | – | CB2 activity at the cloned human cannabinoid CB2 receptor (in words) ([2]; yeast assay): inactive; also recorded: did not appear to have CB2 activity; CB2 agonist activity in reporter gene assay (in words) [3]: active except
